Experimental findings from US20250122207A1, “AP2 ASSOCIATED KINASE 1 INHIBITORS AND USES THEREOF” (Satellos Bioscience Inc., priority 2023, published 2025) are described below.

Read-outs that look alike come from different tables or passages of the source.

One test concerns the target AAK1 (Homo sapiens, UniProt Q2M2I8). The experiment in a line: pAP2M1 cell-based assay (in-cell Western). From the text:
pAP2M1 Cell-Based Assay (in-Cell Western):
The plate was read on Licor Odyssey CLx imaging system (LICOR) to acquire fluorescence intensity at 700 channel and 800 channel.
Data analysis: Fluorescence intensity at 700 channel served as internal standard and 800 channel were normalized with 700 channel.

The target in test [1] is T1, AAK1 (amino acids T27-A365) (Homo sapiens, UniProt Q2M2I8).
T1 construct: against AAK1 (amino acids T27-A365); 6His (N, cleaved yes)
The test is described as follows: AAK1 pSENs assay. Format: biochemical. In a few lines:
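Biotinylated, tag-free AAK1 T27-A365 expressed in E. coli was held at 20 nM in enzyme solution (HEPES pH 7.5, 10 mM MgCl2, DTT, EGTA, Brij35, BSA) and preincubated with compound for 15 min at 25 °C. The reaction was started with an equal volume of substrate solution containing 30 uM AQT0759 peptide and 70 uM ATP. IC50 determined.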

The target of test [2] is T2, BIKE (amino acids S38-E345) (K320A, K321A) (Homo sapiens, UniProt Q9NSY1, K320A/K321A).
T2 construct: against BIKE (amino acids S38-E345) (K320A, K321A); 6His (N, cleaved yes)
The test is described as follows: BIKE pSENs assay. Format: biochemical. The procedure: The recombinant proteins were independently expressed in Escherichia coli BL21(DE3) cells cultured in Luria-Bertani (LB) medium until OD600 reached 0.6-0.8, then cooled to 15° C. and supplemented with 0.5 mM isopropyl 1-thio-D-galactopyranoside (IPTG) induce protein expression 16 h. Cells were harvested and resuspended in lysis buffer (50 mM HEPES pH 7.5, 500 mM NaCl, 5 mM imidazole, 5% glycerol, 0.5 mM Tris (2-carboxyethyl) phosphine (TCEP), cOmplete Protease Inhibitor Tablet (Roche)) and lysed by microfludics high pressure homogenizer (UH-06, Union-Biotech). Proteins were purified using […] chromatography (His FF column, Bestchrom) and eluted stepwise in binding buffer with 20-300 mM imidazole. Removal of the hexahistidine tag was performed at 4° C. overnight using recombinant TEV protease and reacted with BirA to obtain the corresponding biotinylated-AAK1, BIKE or GAK proteins. Further separated in the reverse Strep column (Strep-Tactin® XT, IBA). The Biotin elution sample was collected containing untagged biotinylated protein was then purified by Ion-exchange chromatography (Mono Q 10/100 GL, Cytiva) and Size-exclusion chromatography (HiLoad 16/600 Superdex 200 pg, Cytiva). The pure protein was stored in a storage buffer 50 mM HEPES (pH 7.5), 300 mM NaCl, 5% glycerol at −80° C. Protein were characterized by SDS-PAGE, LC-MS and aSEC.
BIKE protein was dissolved at 20 nM in 1× enzyme solution (50 mM HEPES pH7.5, 10 mM MgCl2, 1 mM DTT, 1% glycerol, 0.5 mM EGTA, 0.01% Briji35, 0.02% BSA) and 12.5 ul was incubated with 250 nl DMSO or 250 nl compound in DMSO at 25° C. for 15 min. The reaction was started by addition of 12.5 ul of 30 uM AQT0759 (Assayquant, CSKS-AQT0759B) and 40 uM ATP which were diluted in 1× substrate dilution buffer (50 mM HEPES pH7.5, 10 mM MgCl2, 1 mM DTT, 1% glycerol, 0.5 mM EGTA, 0.01% Briji35).

[3] abbreviates: Hela cells co-transfected with AP2M1 and AAK1, 3 hr treatment, class symbols, read-out: AAK1 In-cell Western: IC50.
[4] abbreviates: class symbols, read-out: AAK1 pSENs: EIC50.
[5] abbreviates: class symbols, read-out: BIKE pSENs: IC50.

T2 sequence (Q9NSY1 38-345 K320A/K321A): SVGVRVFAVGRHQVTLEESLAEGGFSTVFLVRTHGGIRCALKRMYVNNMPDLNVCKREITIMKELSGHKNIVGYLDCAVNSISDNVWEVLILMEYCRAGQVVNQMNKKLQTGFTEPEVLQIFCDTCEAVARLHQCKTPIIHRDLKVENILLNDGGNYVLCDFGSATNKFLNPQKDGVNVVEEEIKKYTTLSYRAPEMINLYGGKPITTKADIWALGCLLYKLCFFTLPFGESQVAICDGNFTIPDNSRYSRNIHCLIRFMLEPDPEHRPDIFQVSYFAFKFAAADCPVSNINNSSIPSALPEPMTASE
Sequence of AAK1 (Q2M2I8 whole entry): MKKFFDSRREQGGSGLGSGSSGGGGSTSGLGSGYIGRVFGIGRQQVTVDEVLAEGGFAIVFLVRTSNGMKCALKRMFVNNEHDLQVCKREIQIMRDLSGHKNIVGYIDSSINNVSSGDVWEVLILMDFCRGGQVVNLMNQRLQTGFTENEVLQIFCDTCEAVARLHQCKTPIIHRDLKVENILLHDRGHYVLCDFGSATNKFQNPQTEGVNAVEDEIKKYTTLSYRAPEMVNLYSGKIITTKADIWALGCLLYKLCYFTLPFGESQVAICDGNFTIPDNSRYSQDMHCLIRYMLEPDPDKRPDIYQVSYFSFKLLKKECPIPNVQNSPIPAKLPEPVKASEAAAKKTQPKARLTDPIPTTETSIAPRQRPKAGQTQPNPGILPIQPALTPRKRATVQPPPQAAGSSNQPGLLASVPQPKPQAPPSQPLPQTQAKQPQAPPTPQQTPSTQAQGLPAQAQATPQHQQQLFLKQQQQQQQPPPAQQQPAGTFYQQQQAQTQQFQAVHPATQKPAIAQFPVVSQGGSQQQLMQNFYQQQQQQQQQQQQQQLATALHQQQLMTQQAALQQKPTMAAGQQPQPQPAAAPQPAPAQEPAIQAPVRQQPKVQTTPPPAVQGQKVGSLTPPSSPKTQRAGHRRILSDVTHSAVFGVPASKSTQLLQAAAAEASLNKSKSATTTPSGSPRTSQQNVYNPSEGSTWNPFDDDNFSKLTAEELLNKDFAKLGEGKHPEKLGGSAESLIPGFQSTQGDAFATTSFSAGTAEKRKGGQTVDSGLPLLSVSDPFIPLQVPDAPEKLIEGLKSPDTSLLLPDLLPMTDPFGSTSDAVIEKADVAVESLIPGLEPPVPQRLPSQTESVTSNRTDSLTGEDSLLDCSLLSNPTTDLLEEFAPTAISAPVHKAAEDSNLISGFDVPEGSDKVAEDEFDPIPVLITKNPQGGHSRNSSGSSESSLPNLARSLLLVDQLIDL
T1 sequence (Q2M2I8 27-365): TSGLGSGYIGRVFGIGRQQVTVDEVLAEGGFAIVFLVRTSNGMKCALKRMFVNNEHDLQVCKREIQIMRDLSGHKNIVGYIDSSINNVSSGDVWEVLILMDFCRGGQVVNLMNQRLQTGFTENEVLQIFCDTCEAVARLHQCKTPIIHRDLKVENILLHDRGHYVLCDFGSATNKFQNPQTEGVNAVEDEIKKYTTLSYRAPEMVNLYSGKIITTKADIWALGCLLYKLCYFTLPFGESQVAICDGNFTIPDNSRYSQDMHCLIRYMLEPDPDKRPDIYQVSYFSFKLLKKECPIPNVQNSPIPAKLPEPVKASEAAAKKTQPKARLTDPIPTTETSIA

As for `C[C@@H]1CN(c2ccn3ncc(-c4cccnc4OC4CC4)c3n2)CCN1C(=O)O[C@@H]1CNC(=O)C1` [Compound I-39, [(3S)-5-oxopyrrolidin-3-yl]-(2R)-4-[3-[2-(cyclopropoxy)-3-pyridyl]pyrazolo[1,5-a]pyrimidin-5-yl]-2-methyl-piperazine-1-carboxylate], the IC50 at AAK1 (setting [3]) fell in the range of 501 to 1500 nM; in test [1] (setting [4]), 1 to 50 nM; in test [2] (setting [5]), 151 to 500 nM.
With `O=C(O[C@H]1CO[C@H]2OCC[C@H]21)N1CCN(c2ccn3ncc(-c4cccnc4OC4CC4)c3n2)CC1` [Compound I-27, [(3aS,4R,6aR)-2,3,3a,4,5,6a-hexahydrofuro[2,3-b]furan-4-yl]-4-[3-[2-(cyclopropoxy)-3-pyridyl]pyrazolo[1,5-a]pyrimidin-5-yl]piperazine-1-carboxylate], the IC50 lay in the range of 151 to 500 nM on AAK1 (setting [3]), 1 to 50 nM in test [1] (setting [4]) and 151 to 500 nM in test [2] (setting [5]).
As for `CC(=O)N1CC(Oc2ncccc2-c2cnn3ccc(NCCN(C)C(=O)OC(C)(C)C)nc23)C1` [Compound I-63, Tert-butyl (2-((3-(2-((1-acetylazetidin-3-yl)oxy)pyridin-3-yl)pyrazolo[1,5-a]pyrimidin-5-yl)amino)ethyl)(methyl)carbamate], the IC50 lay in the range of 51 to 150 nM on AAK1 (setting [3]), 1 to 50 nM in test [1] (setting [4]) and 51 to 150 nM in test [2] (setting [5]).
Turning to `COCCN1C[C@@H](OC(=O)N2CCN(c3ccn4ncc(-c5cc(F)cnc5OC5CC5)c4n3)CC2)CC1=O` [Compound I-89], the IC50 fell in the range of 501 to 1500 nM at AAK1 (setting [3]), 1 to 50 nM in test [1] (setting [4]) and 151 to 500 nM in test [2] (setting [5]).
In the case of `CC(C)Oc1ncccc1-c1cnn2ccc(N3CCN(C(=O)OC4(C)COC4)CC3)nc12` [Compound I-1, (3-methyloxetan-3-yl)-4-[3-(2-isopropoxy-3-pyridyl)pyrazolo[1,5-a]pyrimidin-5-yl]piperazine-1-carboxylate], the IC50 at AAK1 is 501 to 1500 nM; in test [1], 51 to 150 nM; in test [2] (setting [5]) it was 501 to 1500 nM.
As for `CC(C)(C)OC(=O)N1CC(Oc2ncccc2-c2cnn3ccc(N4CCN(C(=O)O[C@@H]5CNC(=O)C5)CC4)nc23)C1` [Compound I-42], the IC50 on AAK1 (setting [3]) lay within 501 to 1500 nM; in test [1] (setting [4]), 1 to 50 nM; in test [2] (setting [5]), 151 to 500 nM.
In the case of `COc1ncccc1-c1cnn2ccc(N3CCN(C(=O)O[C@H]4CO[C@H]5OCC[C@H]54)CC3)nc12` [Compound I-65, (3R,3aS,6aR)-hexahydrofuro[2,3-b]furan-3-yl 4-(3-(2-methoxypyridin-3-yl)pyrazolo[1,5-a]pyrimidin-5-yl)piperazine-1-carboxylate], the IC50 at AAK1 (setting [3]) lay within 151 to 500 nM; in test [1] (setting [4]), 1 to 50 nM; in test [2] (setting [5]) it was 151 to 500 nM.
As for `COc1ncccc1-c1cnn2ccc(N3CCN(C(=O)OC4CNC(=O)C4)CC3)nc12` (stereo not drawn) [Compound I-6, (5-Oxopyrrolidin-3-yl) 4-[3-(2-methoxy-3-pyridyl)pyrazolo[1,5-a]pyrimidin-5-yl]piperazine-1-carboxylate], the IC50 on AAK1 (setting [3]) lay within 501 to 1500 nM; in test [1] (setting [4]), 1 to 50 nM; in test [2] (setting [5]), 1 to 50 nM.
For the compound `COCCN1C[C@@H](OC(=O)N2CCN(c3ccn4ncc(-c5cccnc5OC5CC5)c4n3)CC2)CC1=O` [Compound I-115, [(3S)-1-(2-methoxyethyl)-5-oxo-pyrrolidin-3-yl]-4-[3-[2-(cyclopropoxy)-3-pyridyl]pyrazolo[1,5-a]pyrimidin-5-yl]piperazine-1-carboxylate], the values for the IC50 (on AAK1 (setting [3]); in test [1] (setting [4]); in test [2] (setting [5])) were 501 to 1500 nM, 1 to 50 nM and 501 to 1500 nM, respectively.
Regarding `CN1C[C@@H](OC(=O)N2CCN(c3nc4c(-c5cccnc5OC5CC5)cnn4cc3F)CC2)CC1=O` [Compound I-109, [(3S)-1-methyl-5-oxo-pyrrolidin-3-yl]4-[3-[2-(cyclopropoxy)-3-pyridyl]-6-fluoro-pyrazolo[1,5-a]pyrimidin-5-yl]piperazine-1-carboxylate], the IC50 on AAK1 (setting [3]) was 151 to 500 nM; in test [1] (setting [4]) it was 1 to 50 nM; in test [2] (setting [5]), 51 to 150 nM.
Regarding `CN1C[C@@H](OC(=O)N2CCN(c3ccn4ncc(-c5cccnc5OC5CC5)c4n3)CC2)CC1=O` [Compound I-34, [(3S)-1-methyl-5-oxo-pyrrolidin-3-yl]-4-[3-[2-(cyclopropoxy)-3-pyridyl]pyrazolo[1,5-a]pyrimidin-5-yl]piperazine-1-carboxylate], the figures for the IC50 (on AAK1 (setting [3]); in test [1] (setting [4]); in test [2]) were 151 to 500 nM, 1 to 50 nM and 151 to 500 nM, respectively.
In the case of `COc1ccccc1-c1cnn2ccc(N3CCN(C(=O)O[C@H]4CO[C@H]5OCC[C@H]54)CC3)nc12` [Compound I-69, (3R,3aS,6aR)-hexahydrofuro[2,3-b]furan-3-yl 4-(3-(2-methoxyphenyl)pyrazolo[1,5-a]pyrimidin-5-yl)piperazine-1-carboxylate], the IC50 is 501 to 1500 nM on AAK1 (setting [3]), 1 to 50 nM in test [1] (setting [4]) and 151 to 500 nM in test [2] (setting [5]).
As for `CN1CC[C@@](C)(OC(=O)N2CCN(c3ccn4ncc(-c5cccnc5OC5CC5)c4n3)CC2)C1` [Compound I-50, [(3R)-1,3-dimethylpyrrolidin-3-yl]-4-[3-[2-(cyclopropoxy)-3-pyridyl]pyrazolo[1,5-a]pyrimidin-5-yl]piperazine-1-carboxylate], the IC50 was 151 to 500 nM at AAK1 (setting [3]), 1 to 50 nM in test [1] (setting [4]) and 501 to 1500 nM in test [2] (setting [5]).
The matching figures for `CN(CCNc1ccn2ncc(-c3cccnc3OC3CC3)c2n1)C(=O)O[C@@H]1CNC(=O)C1` [Compound I-60, [(3S)-5-oxopyrrolidin-3-yl]N-[2-[[3-[2-(cyclopropoxy)-3-pyridyl]pyrazolo[1,5-a]pyrimidin-5-yl]amino]ethyl]-N-methyl-carbamate]: > 1500 nM, 51 to 150 nM and 501 to 1500 nM.
With `CC(C)N1C[C@@H](OC(=O)N2CCN(c3ccn4ncc(-c5cccnc5OC5CC5)c4n3)CC2)CC1=O` [Compound I-114, [(3S)-1-isopropyl-5-oxo-pyrrolidin-3-yl]-4-[3-[2-(cyclopropoxy)-3-pyridyl]pyrazolo[1,5-a]pyrimidin-5-yl]piperazine-1-carboxylate], the IC50 at AAK1 (setting [3]) was > 1500 nM; in test [1] (setting [4]), 51 to 150 nM; in test [2] (setting [5]), 501 to 1500 nM.
The matching figures for `CNCCN1C[C@@H](OC(=O)N2CCN(c3ccn4ncc(-c5cccnc5OC5CC5)c4n3)CC2)CC1=O` [Compound I-36, (S)-1-(2-(methylamino)ethyl)-5-(oxopyrrolidin-3-yl)-4-(3-(2-cyclopropoxypyridin-3-yl)pyrazolo[1,5-a]pyrimidin-5-yl)piperazine-1-carboxylate]: 501 to 1500 nM, 1 to 50 nM and 51 to 150 nM.
Turning to `O=C1C[C@H](OC(=O)N2CCN(c3ccn4ncc(-c5cccnc5OC5CC5)c4n3)CC2)CN1` [Compound I-11, [(3S)-5-Oxopyrrolidin-3-yl]-4-[3-[2-(cyclopropoxy)-3-pyridyl]pyrazolo[1,5-a]pyrimidin-5-yl]piperazine-1-carboxylate hydrochloric acid], the IC50 on AAK1 (setting [3]) lay in the range of 151 to 500 nM; in test [1] (setting [4]) it was 1 to 50 nM; in test [2] (setting [5]), 151 to 500 nM.
